Experimental data: patent US6998395B2, “Administration of estradiol metabolites for the treatment or prevention of obesity, metabolic syndrome, diabetes, and vascular and renal disorders” (University of Pittsburg,, priority 2001, dated 2006)

Key:
Assay type in all cases: in vivo, rat
male ZSF1 rats [1] = test: Treatment of male ZSF1 rats for 24 weeks with 2-hydroxyestradiol or 2-methoxyestradiol
Procedure: Male ZSF1 rats were treated continuously for 24 weeks with polyethylene glycol 400 (PEG 400) (Sigma, St. Louis, Mo.) or one of three doses of 2-hydroxyestradiol or 2-methoxyestradiol (Steraloids, Inc. Newport, R.I.) dissolved in PEG 400. The three doses were 1 ug/kg/hr, 3 ug/kg/hr or 10 ug/kg/hr. Female ZSF1 rats were treated continuously for 24 weeks with either PEG 400 or 10 ug/kg/hr of 2-hydroxyestradiol. Female ZSF1 rats were ovarectomized at 11 weeks of age. For all animals, both male and female, treatments with estradiol metabolites were begun at approximately 13 weeks of age. One group of male ZSF1 rats received only PEG 400 but were pair fed to receive the same daily food intake as the male ZSF1 rats treated with 10 ug/kg/hr 2-hydroxyestradiol. Treatment was administered via subcutaneous implanted pumps (Alzet Osmotic Pump, Model 2ML4, Alza Corporation, Palo Alto, Calif.). The study was designed to evaluate treatment effects and dose responses on body weight, food intake, water intake, urine output, urinary protein excretion, cholesterol levels, plasma glucose levels and glucose tolerance.
Stock solutions of both 2-hydroxyestradiol and 2-methoxyestradiol were made by dissolving the required amount of estradiol metabolite in PEG 400. This solution was diluted in PEG 400 to deliver the three required doses based on the mean weight of each treatment group and the stated volume delivery rate for each lot of osmotic pumps in the study. This stock solution was prepared fresh prior to each osmotic pump implantation in each group. The control solution of PEG 400 was created in the same manner.
All treatments were administered via a subcutaneously implanted osmotic pump (Alzet Osmotic Pump, Model 2ML4, Alza Corporation, Palo Alto, Calif.). Each lot of osmotic pumps were delivered with the stated rate of delivery and formulation concentrations were adjusted to ensure delivery of 1,3, or 10 ug/kg/hr based on the stated rate of delivery of each lot. Doses were adjusted for the mean weight of the animals in the treatment group obtained 24 hours prior to implantation of the osmotic minipump.
Animals were anesthetized prior to implantation of an osmotic minipump with halothane and oxygen (2.5 liter/min) delivered by a Fluotec 3 anesthetic device (Ohmeda, Steeton, UK). After lightly anesthetizing each animal, implantation was accomplished by shaving the back and creating a half-inch incision in which to insert the osmotic minipump. The incision was then closed with wound clips that were removed in seven days. Osmotic minipumps were replaced at 33-day intervals and each time a particular animal received an osmotic minipump, the insertion point was changed.
(§1) Metabolic cages (Nalgene, Rochester, N.Y.) were used in this study. Animals were placed in metabolic cages for 48 hours. The first 24-hour period was considered an acclimation period, while food and fluid intake and urine volume were measured during the second 24-hour period. Additionally, a tail vein sample was obtained to measure blood glucose, sodium, potassium, albumin and creatinine. The blood was further analyzed to assess creatinine clearance, fractional sodium excretion, fractional potassium excretion and fractional albumin excretion. In addition, the following criteria were also assessed while the animals were in the metabolic cages: body weight, feed intake, water intake, urine output, urinary protein, urinary albumin, urinary glucose, urinary sodium and urinary potassium.
Body weights were assessed 24 hours before pump implantation and those weights were used to calculate the dosage of drug or vehicle to be given to each animal based on the mean body weight of each group. Animals were weighed approximately once every two months prior to being placed in a metabolic cage.
(§2) Food intake was measured by filling the food containers with standard powder laboratory food up to a total weight of 250 grams. […]

[2] = tested on: mesenteric vascular bed of male obese ZSF1 rats; test: Mesenteric vascular reactivity to acetylcholine and sodium nitroprusside after 26 weeks of treatment; details: 10 ug/kg/hour s.c., versus control; for Vasodilation induced by sodium nitroprusside (mesenteric vascular resistance, FIG. 3): sodium nitroprusside 0.5, 1.5, 5.0 ug/min
Text: After 26 weeks of treatment, animals were anesthetized and instrumented for assessment of heart performance, renal hemodynamics and mesenteric vascular reactivity. A PE-50 catheter was advanced via the carotid artery into the left ventricle and connected to a heart-performance analyzer (Micro-Med, Inc., Louisville, Ky.) for continuous measurement of ten time/pressure variables. A PE-50 catheter was inserted into the femoral artery and connected to a blood pressure analyzer (Micro-Med, Inc.) for measurement of arterial blood pressure. A PE-10 catheter was inserted into the left ureter for urine collection, and a flow probe (Transonic Systems, Inc., Ithaca, N.Y.) was placed on the left renal artery for determination of renal blood flow. An infusion of ^14C-inulin (0.035 uCi/20 ul saline/min) was initiated, and after 60 minutes, two 30-minute clearance periods were conducted. A mid-point blood sample (300 ul) for measurement of radioactivity was collected. Plasma and urine ^14C-inulin radioactivity were measured, and renal clearance of ^14C-inulin was calculated. A flow probe was placed on the mesenteric artery for determination of mesenteric blood flow, and a 32-gauge needle was inserted into the mesenteric artery and attached to a Y-connector for dual intramesenteric artery infusions (25 ul/min each). Angiotensin II (30 ng/min) plus methoxamine (3 ug/min) was delivered via one intramesenteric artery infusion line into the mesenteric vascular bed to the mesenteric vascular bed. […] Vascular resistances were calculated as arterial blood pressure divided by blood flow.
All values refer to means±SEM for 9 to 10 animals in each group. Statistical significance was calculated using either an unpaired Student's t-test or a 2-factor analysis of variance (repeated measures) followed by a Fisher's Least Significance Difference test if appropriate. […]

male ZSF1 rats [3] = test: Treatment of male ZSF1 rats for 24 weeks with 2-hydroxyestradiol or 2-methoxyestradiol; details: 10 ug/kg/hr, 28 weeks, versus control animals
male obese ZSF1 rats = test: Heart performance, arterial blood pressure and renal hemodynamics in anesthetized ZSF1 rats after 26 weeks of treatment; details: for Glomerular Filtration Rate / Renal Blood Flow / Renal Vascular Resistance: 26 weeks (approximately 6 months) of treatment; for Glomerular Filtration Rate: 14C-inulin clearance
Text: After 26 weeks of treatment, animals were anesthetized and instrumented for assessment of heart performance, renal hemodynamics and mesenteric vascular reactivity. A PE-50 catheter was advanced via the carotid artery into the left ventricle and connected to a heart-performance analyzer (Micro-Med, Inc., Louisville, Ky.) for continuous measurement of ten time/pressure variables. A PE-50 catheter was inserted into the femoral artery and connected to a blood pressure analyzer (Micro-Med, Inc.) for measurement of arterial blood pressure. A PE-10 catheter was inserted into the left ureter for urine collection, and a flow probe (Transonic Systems, Inc., Ithaca, N.Y.) was placed on the left renal artery for determination of renal blood flow. An infusion of ^14C-inulin (0.035 uCi/20 ul saline/min) was initiated, and after 60 minutes, two 30-minute clearance periods were conducted. A mid-point blood sample (300 ul) for measurement of radioactivity was collected. Plasma and urine ^14C-inulin radioactivity were measured, and renal clearance of ^14C-inulin was calculated. A flow probe was placed on the mesenteric artery for determination of mesenteric blood flow, and a 32-gauge needle was inserted into the mesenteric artery and attached to a Y-connector for dual intramesenteric artery infusions (25 ul/min each). Angiotensin II (30 ng/min) plus methoxamine (3 ug/min) was delivered via one intramesenteric artery infusion line into the mesenteric vascular bed to the mesenteric vascular bed. Next, vascular responses to increasing doses of acetylcholine (0.3, 1.0 and 3.0 ug/min, 5 minutes per dose) and sodium nitroprusside (0.5, 1.5 and 5.0 ug/min, 5 minutes per dose) were elicited by infusing these agents via the other intramesenteric artery infusion line into the mesenteric vascular bed. Vascular resistances were calculated as arterial blood pressure divided by blood flow.
All values refer to means±SEM for 9 to 10 animals in each group. Statistical significance was calculated using either an unpaired Student's t-test or a 2-factor analysis of variance (repeated measures) followed by a Fisher's Least Significance Difference test if appropriate. The criterion of significance was p<0.05.

female ZSF1 rats = test: Treatment of ovarectomized female ZSF1 rats for 24 weeks with 2-hydroxyestradiol; details: 10 ug/kg/hr
Procedure: Male ZSF1 rats were treated continuously for 24 weeks with polyethylene glycol 400 (PEG 400) (Sigma, St. Louis, Mo.) or one of three doses of 2-hydroxyestradiol or 2-methoxyestradiol (Steraloids, Inc. Newport, R.I.) dissolved in PEG 400. The three doses were 1 ug/kg/hr, 3 ug/kg/hr or 10 ug/kg/hr. Female ZSF1 rats were treated continuously for 24 weeks with either PEG 400 or 10 ug/kg/hr of 2-hydroxyestradiol. Female ZSF1 rats were ovarectomized at 11 weeks of age. For all animals, both male and female, treatments with estradiol metabolites were begun at approximately 13 weeks of age. […]
as §1, with “Animals were placed in metabolic cages for 48 hours.” left out, “Additionally, a tail vein sample was obtained to measure blood glucose, sodium, potassium, albumin and creatinine.” left out, “potassium. […]” for “potassium.”
as §2

[4] = male, 10 ug/kg/hr, 24 weeks, versus control animals
[5] = male, 1, 3 or 10 ug/kg/hr s.c. osmotic pump, 24 weeks, versus control
[6] = anesthetized, listed as 2-Hydroxyestradiol
[7] = Table 2, after approximately 6 months of treatment

C[C@]12CC[C@@H]3c4cc(O)c(O)cc4CC[C@H]3[C@@H]1CC[C@@H]2O [2-hydroxyestradiol, estra-1,3,5 (10)-triene-2,3,1 7-triol (17β)]
Leptin levels (FIG. 11) (male ZSF1 rats [1]; male, 10 ug/kg/hr, 20 weeks, versus control animals): clearly reduced | 24-hour urine output (FIG. 13) (male ZSF1 rats [1]; [4]): lower | 24-hour water intake (FIG. 12) (male ZSF1 rats [1]; [4]): lower | Blood urea nitrogen (FIG. 10) (male ZSF1 rats [1]; male, 10 ug/kg/hr, 24 weeks, versus control groups): lower | Plasma level of glucose after administration of 2 g/4 ml/kg glucose (oral glucose tolerance test, FIGS. 8 and 9) (male ZSF1 rats [1]; male, 10 ug/kg/hr, treated for 14 to 15 weeks, versus control groups): lower | Body weight gain (FIGS. 4 and 5) (male ZSF1 rats [1]; [5]): less body weight gain | Food intake (male ZSF1 rats [1]; [5]): lower food intake | Urinary protein excretion (FIG. 7) (male ZSF1 rats [1]; male, 1, 3 or 10 ug/kg/hr, after 24 weeks of treatment, versus control animals): lower | Decreases in mesenteric vascular resistance induced by acetylcholine (FIG. 2) ([2]; acetylcholine 0.3, 1.0, 3.0 ug/min): greater | Vasodilation induced by sodium nitroprusside (mesenteric vascular resistance, FIG. 3) [2]: non-significant effect | Vasodilation induced by sodium nitroprusside (mesenteric vascular resistance, FIG. 3) ([2]; listed as 2-Hydroxyestradiol): only slightly (non-significantly) enhanced | Glycated hemoglobin (HbA1c) (FIG. 14) (male ZSF1 rats [3]): lower | Mean arterial blood pressure (male obese ZSF1 rats; 10 ug/kg/hour s.c., 26 weeks of treatment, anesthetized): 122±5 mm Hg | Effects on heart performance in situ (male obese ZSF1 rats; 10 ug/kg/hour s.c., chronic treatment (26 weeks), versus control): no effects | Glomerular Filtration Rate (male obese ZSF1 rats): did not affect | Glomerular Filtration Rate (male obese ZSF1 rats; listed as 2-Hydroxyestradiol): 0.76 ± 0.09 ml/min/gram kidney | Renal Blood Flow (male obese ZSF1 rats; anesthetized): did not affect | Renal Vascular Resistance (male obese ZSF1 rats; anesthetized): did not affect | Renal Blood Flow (male obese ZSF1 rats; [6]): 3.3 ± 0.6 ml/min/gram kidney | Renal Vascular Resistance (male obese ZSF1 rats; [6]): 42 ± 7 mm Hg/ml/min/gram kidney | +dP/dtmax (male obese ZSF1 rats; [7]): 11,805 ± 943 mm Hg/sec | +dP/dtmax/Ventricular Peak Systolic Pressure (male obese ZSF1 rats; [7]): 69.9 ± 2.5 s⁻¹ | Duration of Contraction (male obese ZSF1 rats; [7]): 38.8 ± 3.5 ms | Duration of Relaxation (male obese ZSF1 rats; [7]): 96.3 ± 6.3 ms | Half-Time of Ventricular Relaxation (male obese ZSF1 rats; [7]): 49.1 ± 3.6 ms | Heart Rate (male obese ZSF1 rats; [7]): 352 ± 9 beats/min | Heart Rate × Ventricular Peak Systolic Pressure (male obese ZSF1 rats; [7]): 60,949 ± 4,237 [beats/min] × mm Hg | Mean Blood Pressure (male obese ZSF1 rats; [7]): 122 ± 5 mm Hg | Time Constant of Ventricular Relaxation (male obese ZSF1 rats; [7]): 16.7 ± 1.9 ms | Ventricular End Diastolic Pressure (male obese ZSF1 rats; [7]): 4.2 ± 1.0 mm Hg | Ventricular Minimum Diastolic Pressure (male obese ZSF1 rats; [7]): −1.4 ± 1.1 mm Hg | Ventricular Peak Systolic Pressure (male obese ZSF1 rats; [7]): 172 ± 9 mm Hg | −dP/dtmax (male obese ZSF1 rats; [7]): 6853 ± 382 mm Hg/sec | Leptin levels (FIG. 11) (female ZSF1 rats; 20 weeks, versus control animals): reduced | Blood urea nitrogen (FIG. 10) (female ZSF1 rats; 24 weeks, versus control groups): lower
